# Structures can show the parent of a compound that is named as a salt.
# Test system: human platelet aggregation
# Assay: Inhibitory effect on human platelet aggregation (ADP-induced, platelet-rich plasma, aggreometer)
# Format: cell-based
# Settings: 5×10^8 platelets/ml, ADP final concentration 3 μM, 37° C., 3 min preincubation, read-out: 50% inhibitory concentration (IC50)
# Procedure: A mixture of blood collected from a human elbow vein and a 3.8% sodium citrate solution in the ratio of 9:1 (v/v) was centrifuged at room temperature to obtain platelet-rich plasma and platelet-poor plasma. Then, the platelet-rich plasma was diluted with the platelet-poor plasma to adjust the number of platelets to 5×10^8 platelets/ml. […] After 3 minutes, 18.75 μl of adenosine 5'-diphosphate (ADP) (final concentration: 3 μM) was added to the mixture and a change in the intensity of transmitted light caused by the aggregation was recorded with the lapse of time with an aggreometer.
row,Compound,IC50 [nM]
1,"N=C(N)c1ccc(OCCCN2CCN(CC(=O)O)C(=O)C2=O)cc1 [Example 10, [4-[3-(4-Amidinophenoxy)propyl]-2,3-dioxopiperazin-1yl]acetic acid hydrochloride]",5000
2,N=C(N)c1ccc(OCCCCCN2CCN(CC(=O)O)C(=O)C2=O)cc1 [Example 13],10000
3,N=C(N)c1ccc(OCCCN2CCN(CCC(=O)O)C(=O)C2=O)cc1 [Example 15],4700
4,N=C(N)c1ccc(OCCN2CCN(CCCC(=O)O)C(=O)C2=O)cc1 [Example 16],2200
5,"N=C(N)c1ccc(OCCCn2ccn(CC(=O)O)c(=O)c2=O)cc1 [Example 17, [4-[3-(4-Amidinophenoxy)propyl]-1,2,3,4-tetrahydro-2,3-dioxopyrazin-1-yl]acetic acid hydrochloride]",42000
6,"N=C(N)c1ccc(OCCCN2CCN(C(CC(=O)O)c3cccnc3)C(=O)C2=O)cc1 (stereo not shown) [Example 58, 3-[4-[3-(4-Amidinophenoxy)propyl]-2,3-dioxopiperazin-1-yl]-3-(pyridin-3-yl)propionic acid]",54
7,"N=C(N)c1ccc(OCCCN2CCN(C(CC(=O)O)C(=O)O)C(=O)C2=O)cc1 (stereo not shown) [Example 62, 2-[4-[3-(4-Amidinophenoxy)propyl]-2,3-dioxopiperazin-1-yl]succinic acid]",3200
8,"N=C(N)c1ccc(OCCCCN2CCN(C(CC(=O)O)c3cccnc3)C(=O)C2=O)cc1 (stereo not shown) [Example 79, 3-[4-[4-(4-Amidinophenoxy)butyl]-2,3-dioxopiperazin-1-yl]-3-(pyridin-3-yl)propionic acid]",3500
9,"N=C(N)c1ccc(OCCCN2CCN(C(CC(=O)O)C3CC3)C(=O)C2=O)cc1 (stereo not shown) [Example 83, 3-[4-[3-(4-Amidinophenoxy)propyl]-2,3-dioxopiperazin-1-yl]-3-(cyclopropyl)propionic acid]",1100
10,"CCOC(=O)CC(c1cccnc1)N1CCN(CCCOc2ccc(C(=N)N)cc2)C(=O)C1=O (stereo not shown) [Example 88, Ethyl 3-[4-[3-(4-amidinophenoxy)propyl]-2,3-dioxopiperazin-1yl]-3-(pyridin-3-yl)propionate hydrochloride]",3400
11,N=C(N)c1ccc(C(=O)NCCN2CCN(CCC(=O)O)C(=O)C2=O)cc1 [Example 99],2100
12,"N=C(N)c1ccc(C(=O)NCCN2CCN(CC(=O)O)C(=O)C2=O)cc1 [Example 103, [4-[2-(4-Amidinobenzoylamino)ethyl]-2,3-dioxopiperazin-1-yl]acetic acid]",1900
13,"CC(C)(C)OC(=O)CN1CCN(CCCC(=O)Nc2ccc(C(=N)NC(=O)OCc3ccccc3)cc2)C(=O)C1=O [Example 106, tert-Butyl [4-[4-(4-benzyloxycarbonylamidino-phenylamino) -4-oxobutyl]-2,3-dioxopiperazin-1-yl]acetate]",1000

# Other lines, results leading:
row,IC50 [nM],Compound
1,950,"N=C(N)c1ccc(S(=O)(=O)NCCCN2CCN(CC(=O)O)C(=O)C2=O)cc1 [105(2), [4-[3-(4-Amidinobenzenesulfonylamino)propyl]-2,3-dioxopiperazin-1-yl]aceticacid]"
2,140,"N=C(N)c1ccc(OCCCCN2CCN(C(C(=O)O)c3ccccc3)C(=O)C2=O)cc1 (stereo not drawn) [Example 19, α-[4-[4-(4-Amidinophenoxy)butyl]-2,3-dioxopiperazin-1yl]-α-phenylacetic acid]"
3,900,"N=C(N)c1ccc(OCCCN2CCN(CC(Cc3ccc4c(c3)OCO4)C(=O)O)C(=O)C2=O)cc1 (stereo not shown) [Example 20, 2-[(1,3-Benzodioxol-5-yl)methyl]-3-[4-[3-(4-amidinophenoxy)propyl]-2,3-dioxopiperazin-1-yl]propionic acid]"
4,370,"CC(CC(=O)O)N1CCN(CCCOc2ccc(C(=N)N)cc2)C(=O)C1=O (stereo not shown) [Example 59, 3-[4-[3-(4-Amidinophenoxy)propyl]-2,3-dioxopiperazin-1-yl]-3-methylpropionic acid]"
5,120,N=C(N)c1ccc(OCCCN2CCN(C(CC(=O)O)c3cccs3)C(=O)C2=O)cc1 (stereo not shown) [Example 61]
6,160,COc1ccc(C(CC(=O)O)N2CCN(CCCOc3ccc(C(=N)N)cc3)C(=O)C2=O)cc1 (stereo not shown) [Example 64]
7,290,N=C(N)c1ccc(OCCCN2CCN(C(CC(=O)O)c3ccc(F)cc3)C(=O)C2=O)cc1 (stereo not shown) [Example 65]
8,140,"N=C(N)c1ccc(OCCCN2CCN(C(CC(=O)O)c3ccc4c(c3)OCO4)C(=O)C2=O)cc1 (stereo not shown) [Example 66, 3-[4-[3-(4-Amidinophenoxy)propyl]-2,3-dioxopiperazin-1-yl]-3-(1,3-benzodioxol-5-yl)propionic acid]"
9,570,N=C(N)c1ccc(OCCCN2CCN(C(CC(=O)O)c3ccco3)C(=O)C2=O)cc1 (stereo not shown) [Example 67]
10,140,N=C(N)c1ccc(OCCCN2CCN(C(CC(=O)O)c3ccc(F)cc3F)C(=O)C2=O)cc1 (stereo not shown) [Example 77]
11,150,COc1cccc(C(CC(=O)O)N2CCN(CCCOc3ccc(C(=N)N)cc3)C(=O)C2=O)c1 (stereo not shown) [Example 78]
12,480,"CCCCC(CC(=O)O)N1CCN(CCCOc2ccc(C(=N)N)cc2)C(=O)C1=O (stereo not shown) [Example 82, 3-[4-[3-(4-Amidinophenoxy)propyl]-2,3-dioxopiperazin-1-yl]-3-(butyl)propionic acid]"
13,290,N=C(N)c1ccc(OCCCN2CCN(C(CC(=O)O)c3cccc4ccccc34)C(=O)C2=O)cc1 (stereo not shown) [Example 85]
14,530,"N=C(N)c1ccc(OCCCN2CCN(CC(C(=O)O)c3ccccc3)C(=O)C2=O)cc1 (stereo not shown) [Example 87, 3-[4-[3-(4-Amidinophenoxy)propyl]-2,3-dioxopiperazin-1-yl]-2-phenylpropionic acid]"
15,560,"N=C(N)c1ccc(C(=O)NCCN2CCN(C(CC(=O)O)c3cccnc3)C(=O)C2=O)cc1 (stereo not shown) [Example 97, 3-[4-[2-(4-Amidinobenzoyl)aminoethyl]-2,3-dioxopiperazin-1yl]-3-(pyridin-3-yl)propionic acid]"
16,500,"N=C(N)c1ccc(C(=O)NCCCN2CCN(CC(Cc3ccc4c(c3)OCO4)C(=O)O)C(=O)C2=O)cc1 (stereo not shown) [Example 102, 3-[4-[3-(4-Amidinobenzoylamino)propyl]-2,3-dioxopiperazin-1-yl]-2-[(1,3-benzodioxol-5-yl)methyl]-propionic acid]"
17,800,"N=C(N)c1ccc(C(=O)NCCCN2CCN(CC(=O)O)C(=O)C2=O)cc1 [Example 104, [4-[3-(4-Amidinobenzoylamino)propyl)-2,3-dioxopiperazin-1-yl]acetic acid]"

# Test system: ddY strain male mice
# Assay: Acute toxicity (intravenous, mice)
# Format: in vivo
# Settings: 300 mg/kg, intravenous (tail), physiological saline
# Procedure: A solution of the compound of Example 58 in physiological saline was intravenously administered to a group consisting of 5 ddY strain male mice (average body weight: 27.5 g) each, in the tails, whereby the acute toxicity of the compound was investigated. As a result, no mouse died at a dose of the test compound of 300 mg/kg.
row,Compound,acute toxicity (mortality)
1,"N=C(N)c1ccc(OCCCN2CCN(C(CC(=O)O)c3cccnc3)C(=O)C2=O)cc1 (stereo not shown) [Example 58, 3-[4-[3-(4-Amidinophenoxy)propyl]-2,3-dioxopiperazin-1-yl]-3-(pyridin-3-yl)propionic acid]",no mouse died

# From patent US5877174A, “2,3-diketopiperazine derivatives or their salts” (Toyama Chemical Co., Ltd., priority 1994, dated 1999)
